Assay results reported in US12419305B2, “Antimicrobial compositions” (Firmenich SA, priority 2018, dated 2025).
Read-outs that look alike come from different tables or passages of the source.

What was measured:
S. haemolyticus 114126 = assay: BCT test (bacterial contact time), 120 s, log reduction / effect fraction; CI by Compusyn; type: cell-based; conditions: Staphylococcus haemolyticus, 114126, 2 min, contact 120 s, 25% EtOH; for log reduction at 0.2 % strength: dose 0.2% w/v; for log reduction at 0.25 % strength: dose 0.25% w/v; for log reduction at 0.3 % strength: dose 0.3% w/v
How it was run: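 S. haemolyticus 114126 (skin isolate), grown to OD600 1-2 in BHI-TW80 and resuspended at 1-5×10^8 CFU/mL, was mixed 1:1 with ethanolic perfume compositions or ethanol alone for 45, 60 or 120 s. Viable counts came from serial-dilution regrowth (37 °C, turbidity OD600), giving log reduction versus ethanol control; CI was computed from concentration–effect fraction pairs.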

E. coli ATCC 10536 = assay: BCT test (bacterial contact time), 45 s, log reduction / effect fraction; CI by Compusyn; type: cell-based, Escherichia coli; conditions: Escherichia coli, ATCC10536, 45 s, 45 s, in 20% EtOH; for log reduction at 0.1 % strength: dose 0.100 % w/v, read-out: Log reduction; for log reduction at 0.125 % strength: dose 0.125 % w/v; for log reduction at 0.15 % strength: dose 0.150 % w/v
How it was run: (§1)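 Log-phase cultures (OD600 1-2) were resuspended in TSB at about 1×10^8 bacteria/mL and mixed 1:1 with ethanolic perfume combinations or single ingredients, five replicates each. After the stated contact time, serial dilutions were grown at 37° C and viable counts derived from OD600 turbidity; log reduction is versus ethanol control.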

S. aureus ATCC 6538 = assay: BCT test (bacterial contact time), 60 s, log reduction / effect fraction; CI by Compusyn; type: cell-based, Staphylococcus aureus; conditions: Staphylococcus aureus, ATCC6538, 1 min, in 25% EtOH; for log reduction at 0.2 % strength: dose 0.200 % w/v
How it was run: as §1

[1] = test system: Pseudomonas aeruginosa ATCC 15442; assay: as above; type: cell-based; conditions: Pseudomonas aeruginosa, ATCC15442, 1 min, BCT 60 s, in 25% EtOH; for log reduction at 0.15 % strength: Dose 0.15 % w/v
How it was run: as §1

[2] = test system: Salmonella enterica ATCC 10708; assay: as above; type: cell-based; conditions: Salmonella enterica, ATCC10708, 1 min, BCT 60 s, in 25% EtOH; for log reduction at 0.1 % strength: read-out: Log reduction; for log reduction at 0.15 % strength: Dose 0.15 % w/v
How it was run: as §1

[3] = dose 0.150 % w/v, 60 s, read-out: Log reduction
[4] = dose 0.175 % w/v, 60 s, read-out: Log reduction

| Compound | log reduction at 0.2 % strength (S. haemolyticus 114126) | log reduction at 0.25 % strength (S. haemolyticus 114126; read-out: Log reduction) | log reduction at 0.3 % strength (S. haemolyticus 114126; read-out: Log reduction) | log reduction at 0.1 % strength (E. coli ATCC 10536) | log reduction at 0.125 % strength (E. coli ATCC 10536) | log reduction at 0.15 % strength (E. coli ATCC 10536) | log reduction at 0.125 % strength (S. aureus ATCC 6538; dose 0.125 % w/v, 60 s) | log reduction at 0.15 % strength (S. aureus ATCC 6538; [3]) | log reduction at 0.175 % strength (S. aureus ATCC 6538; [4]) | log reduction at 0.2 % strength (S. aureus ATCC 6538; 60 s, read-out: Log reduction) | log reduction at 0.15 % strength [1] | log reduction at 0.1 % strength ([2]; Dose 0.1 % w/v) | log reduction at 0.1 % strength ([2]; Dose 0.10 % w/v) | log reduction at 0.15 % strength [2] | other results |
| --- | --- | --- | --- | --- | --- | --- | --- | --- | --- | --- | --- | --- | --- | --- | --- |
| C=CCc1ccc(O)c(OC)c1 [Eugenol F, 2-Methoxy-4-(prop-2-en-1-yl)phenol] | 0.3 | 2.37 | 4.9 | 0.9 | 2.5 | 7.4 | 1.5 | 2.2 | 4.6 | 6.9 | 7.5 | 2.4 | 2 | 7.8 | log reduction at 0.35 % strength (S. haemolyticus 114126; dose 0.35% w/v): 7.6; log reduction at 0.075 % strength (E. coli ATCC 10536; dose 0.075 % w/v): 0; log reduction at 0.09 % strength (E. coli ATCC 10536; dose 0.090 % w/v): 0.3; log reduction at 0.1 % strength (S. aureus ATCC 6538; Dose 0.1 % w/v, BCT 60 s): 0.8; log reduction at 0.125 % strength (S. aureus ATCC 6538; Dose 0.125 % w/v, BCT 60 s): 1.6; log reduction at 0.15 % strength (S. aureus ATCC 6538; Dose 0.15 % w/v, BCT 60 s, read-out: Log reduction): 2.3; log reduction at 0.175 % strength (S. aureus ATCC 6538; Dose 0.175 % w/v, BCT 60 s, read-out: Log reduction): 5.5; log reduction at 0.1 % strength (S. aureus ATCC 6538; dose 0.100 % w/v, 60 s): 0.7; log reduction at 0.13 % strength (S. aureus ATCC 6538; dose 0.13 % w/v, 60 s): 1.6; log reduction at 0.12 % strength ([1]; Dose 0.12 % w/v): 2.4; log reduction at 0.14 % strength ([1]; Dose 0.14 % w/v): 3.8; log reduction at 0.075 % strength ([2]; Dose 0.075 % w/v): 1; log reduction at 0.125 % strength ([2]; Dose 0.125 % w/v): 4.4 |
| CC1=CCC(C(C)(C)O)CC1 (centres unmarked) [Terpineol Ord, 2-(4-Methylcyclohex-3-en-1-yl)propan-2-ol] | 1.9 | 5.8 | 7.4 | 0.1 | 1.3 | 3.8 | 0.8 | 2.8 | 4.8 | 6.2 | 6.6 | 0.8 | 5.4 | 7.7 | log reduction at 0.1 % strength (S. haemolyticus 114126; dose 0.1% w/v): -0.1; log reduction at 0.4 % strength (S. haemolyticus 114126; dose 0.4% w/v, read-out: Log reduction): 7.4; log reduction at 0.11 % strength (E. coli ATCC 10536; dose 0.110 % w/v): 0.3; log reduction at 0.2 % strength (E. coli ATCC 10536; dose 0.200 % w/v): 7.4; log reduction at 0.25 % strength (S. aureus ATCC 6538; dose 0.250 % w/v, 60 s, read-out: Log reduction): 7.3; log reduction at 0.125 % strength ([1]; Dose 0.125 % w/v): 4.4; log reduction at 0.135 % strength ([1]; Dose 0.135 % w/v): 4.3; log reduction at 0.2 % strength ([1]; Dose 0.2 % w/v, read-out: Log reduction): 7.6; log reduction at 0.1375 % strength ([2]; Dose 0.1375 % w/v): 7.7 |
